Tests used:
[1] = tested on: IL-6; assay: MSU-induced IL-6 in knee joint tissue (multiplex microassay); assay type: in vivo, mouse; details: 2,4-D 100 mg/kg, CLC 1 mg/kg, DEX 0.5 mg/kg
Protocol: Mice (six per group) were treated with 2,4-D (100 mg/kg or 20 mg/kg, i.p.), CLC (1 mg/kg or 0.2 mg/kg, i.p.), DEX (0.5 mg/kg or 0.1 mg/kg, i.p.), or vehicle (20% polyoxyethylenesorbitan monooleate (Tween 80) plus PBS) 30 min before intra-articular stimulus with MSU (100 μg/10 μL, i.a.). Six mice with intra-articular injection with PBS alone served as a negative control.
Induction of MSU-Induced Knee Joint Inflammation. Male ICR (CD-1) mice (35-45 g, 10-12 weeks) were purchased from VitalRiver Inc (Beijing, China) and were kept in an animal care facility under controlled temperature of 21±1° C., humidity, and on a light/dark cycle, with ad libitum access to water and standard laboratory chow diet. Animal care and handling procedures were approved by the Animal Ethics Committee of GZUCM (Guangzhou University of Chinese Medicine). All efforts were made to minimize animal suffering and to reduce the number of animals used. Joint inflammation was induced by the intra-articular (i.a.) administration of MSU (200 μg/20 μl) into the right and left knee joints of mice under inhaled 3% isoflurane anesthesia. Control animals received an injection (i.a.) of sterile PBS (20 μL).
Cytokine Measurement. Mice were anesthetized and sacrificed. Knee joints were collected and frozen in liquid nitrogen. Samples were then homogenized in 500 μl of buffer containing protease inhibitors, centrifuged (3600 rpm, 4° C., 15 min) and supernatants were used to determine Th1/Th2/Th17 cytokine levels using a multiplex microassay (Qantibody® mouse TH17 Array 1 kit, Cat. No.: QAM-TH17-1; RayBiotech, Norcross, GA). Results were expressed as picograms (pg) of cytokine/mg of tissue.
Statistical Analysis. […] For in vitro experiments, microassays were performed in quadruplicate. p<0.05 was considered significant (*p<0.05, **p<0.01, ***p<0.001).

[2] = tested on: SOD1 G93A mice; assay: SOD1 G93A mouse model of ALS, motor symptoms and neuroscore; assay type: in vivo; details: 50 mg/kg daily oral in gel from 21 days post-natal
Description: Animals. The ALS mouse model is the SOD1 G93A (Gurney et al. Science 1994). Mutations in the SOD1 gene represent about 20% of the mutations in human familiar forms of ALS. Mice with multiple human transgenes with the G93A mutation in the SOD1 gene develop a progressive muscle paralysis and a loss of spinal motor neurons as in human patients. We used the high expressor lines (Jackson Labs #002726 B6SJL-Tg(SOD1*G93A)1 Gur/J) that contains at least 15 copies of the human transgene. SOD1 G93A males are crossed with B6/SJL females (Janvier Labs #SH-B6SJL-F1; hybrid model B6SJLF1/JRj). Genotyping allows us to identify the transgenic animals in the litter.
Symptoms progression is assessed using a neuroscore grid as in Hatzipetros et al. JoVE 2015. Mice are euthanized when they are transitioning from neuroscore 2 to neuroscore 3 (full paralysis of one hindlimb). This transition happens about 120-130 days post-natal in our breeding conditions and in the absence of the 2,4-D treatment. Non transgenic littermates are used as control animals.
Chronic administration of 2,4-D in mice. […] Daily delivery of the drug for a long time period (about 100 days) is not compatible with IP injections for ethics considerations and also because of the infection risk. We then rely on oral administration in a gel using a method modified from Lei Zhang, Star Protocol 2021. Briefly, the gel is produced by mixing alimentary gelatin (8%, Vahiné) in a 2% sucralose solution (Myprotein, zero calory, no flavor) and by heating this mixture at 60° C. for 20-30 minutes until clarification. An artificial flavor, for instance “cheese flavor” (Arôme Alimentaire Emmental 58 ml Cuisineaddict), 2 microliters/milliliter), may be added to this preparation along with some kibble grinds to powder (the same kibble as the one used in the house facility for ordinary diet) for improving palatability. This mixture is then aliquoted in individual daily portions of 315 microliters. 1 to 2 mg of 2,4-D (depending on the mouse body weight, 50 mg of 2,4-D per kg of mouse body weight) is added to each portion while the mixture is still warm (2,4-D is not added in the vehicle portions given to untreated animals). This mixture solidifies in a jelly form upon cooling. The gel can be kept in a fridge (4° C.) for 6 days. We usually have 4 mice (males or females) per cage. To feed the mice with 2,4-D we remove the ordinary kibbles (sometime 4 hours before) and we physically isolated each mouse in a corner of the cage with a plexiglass cross placed in the cage to separate four compartments. One portion jelly is placed at the bottom of each compartment until the mouse has eaten it. In the case the mouse has not eaten the full portion after 3 hours, we evaluate how much was taken by the mouse. […]

[3] = tested on: IL-17; assay: IL-17A production in anti-CD3/CD28-stimulated mouse spleen cells (ELISA); assay type: cell-based; details: for production and release of IL-17 in supernatant: 72 h
Protocol: Briefly, before the experiment, 48-well plates were coated with 150 μl/well hamster anti-mouse CD3 (Clone 145-2C11, NA/LE, BD PHM, USA) at a concentration of 10 μg/ml and incubated overnight at 4° C. The next day, a C57BL/6 mouse was euthanized by cervical dislocation, and its spleen was aseptically dissected using sterile techniques. The harvested spleen was placed in a small Petri dish containing 10 ml of ice-cold PBS/FBS, ground using 2 frosted microscope slides, and filtered through a piece of 40 μm nylon material to yield a single cell suspension. Thereafter, the spleen cell suspension was carefully dispensed onto mouse lymphocyte separation medium (TBD Science Inc, Tianjin, China) and the lymphocytes were collected after density gradient centrifugation. After washing and cell counting, cell density was adjusted to 1 million cells/mL with RPMI 1640 (Gibco) plus 10% FCS and 1 μg/mL anti-mouse CD28 (BD PHM). […] After stimulation for 72 hours with anti-CD3 and anti-CD28 monoclonal antibodies, culture supernatants were collected and IL-17A measured with an IL-17A mouse ELISA kit (Thermo Fisher Scientific Inc.) according to the manufacturer's instructions. Cell count and viability were also evaluated with 0.4% trypan blue (Thermo Fisher Scientific Inc.) staining.

COc1cc(O)c(OC)c(O)c1C(=O)/C=C/c1ccccc1 [2,4-D, 2′,4′-dihydroxy-3′,6′-dimethoxychalcone]
decrease of IL-6 in knee joint tissue [1]: 7.6 fold | neuroscore progression (from 0 to 3) [2]: tends to slow down | time at which neuroscore 3 is reached (survival time) [2]: tends to be delayed | time at which the axial tonus is lost, compared with vehicle [2]: significantly extends | time at which the full hindlimb extension is lost, compared with vehicle [2]: significantly extends | production and release of IL-17 in supernatant ([3]; 1 μg/ml): significantly suppressed | production and release of IL-17 in supernatant ([3]; 5 μg/ml): significantly suppressed | suppression of IL-17 on adding recombinant mouse IL-23 ([3]; recombinant mouse IL-23 5 ng/ml): completely reversed

Reference: patent publication US20240335395A1, “COMPOSITIONS AND METHODS FOR PREVENTING AND/OR TREATING DISEASE ASSOCIATED WITH IL-23 EXPRESSION” (ALLSPIM, priority 2021, published 2024)
